Active and inactive are the calls of the source. The calls are words filed in the database; no cut-off is given here.

inhibition, inhibition in vivo and Inhibition data for 6 compounds are collected here from ChEMBL document CHEMBL1125860 (J Med Chem, 1991).

Experiment [1] relates to Rattus norvegicus. The experiment in a line: In vivo inhibition of galactitol accumulation in sciatic nerves of rat at 52 mg/kg/dayC. Type of experiment: functional, organism-based. The note with it: Sciatic nerve.
Experiment [2] addresses Aldo-keto reductase family 1 member B1 (Bos taurus) (UniProt P16116). Briefly: In vitro % decrease of aldose reductase measured in isolated partially purified bovine lens preparations at 10e-7 M concentration.
Experiment [3] has as its system Rattus norvegicus. The experiment in a line: In vivo inhibition of galactitol accumulation in diaphragm of rat at 52 mg/kg/day. Type of experiment: functional.
In experiment [4] the target is Aldo-keto reductase family 1 member B1 (Bos taurus) (UniProt P16116). The experiment in a line: In vitro % decrease of aldose reductase was measured in isolated partially purified bovine lens preparations at 10e-7 M concentration; Not active.
The species entered for experiment [5] is Rattus norvegicus. The experiment in a line: In vitro inhibition of sorbitol accumulation was measured in rat sciatic nerves incubated in the presence of 50 mM glucose at 10e-6 M concentration. Type of experiment: functional, Sciatic nerve.
Experiment [6] is filed under the species Rattus norvegicus. The experiment in a line: In vitro inhibition of sorbitol accumulation was measured in rat sciatic nerves incubated in the presence of 50 mM glucose at 10e-5 M concentration. Format: functional, Sciatic nerve.
The subject of experiment [7] is Rattus norvegicus. Briefly: In vivo inhibition of galactitol accumulation in sciatic nerves of rat at 11 mg/kg/day; Not significant. Type of experiment: functional, organism-based. The following applies: Sciatic nerve.
Experiment [8] has as its system Rattus norvegicus. Briefly: In vivo inhibition of galactitol accumulation in diaphragm of rat at 11 mg/kg/day. Type of experiment: functional.
Experiment [9] relates to Rattus norvegicus. Briefly: In vivo inhibition of galactitol accumulation in diaphragm of rat at 16 mg/kg/day. Format: functional.
For experiment [10], the system named is Rattus norvegicus. The experiment in a line: In vivo inhibition of galactitol accumulation in sciatic nerves of rat at 16 mg/kg/day; Not significant. The following applies: Sciatic nerve. Type of experiment: functional, organism-based.
In experiment [11] the test system is Rattus norvegicus. The experiment in a line: In vivo inhibition of galactitol accumulation in sciatic nerves of rat at 123 mg/kg/day. Type of experiment: functional. The following applies: Sciatic nerve.
In experiment [12] the test system is Rattus norvegicus. The experiment in a line: In vivo inhibition of galactitol accumulation in diaphragm of rat at 123 mg/kg/day. Type of experiment: functional.
The subject of experiment [13] is Rattus norvegicus. Briefly: In vivo inhibition of galactitol accumulation in diaphragm of rat at 53 mg/kg/day. Type of experiment: functional.
Experiment [14] has as its system Rattus norvegicus. Briefly: In vivo inhibition of galactitol accumulation in diaphragm of rat at 25 mg/kg/day; […]. Type of experiment: functional, organism-based.
Experiment [15] concerns Rattus norvegicus. The experiment in a line: In vivo inhibition of galactitol accumulation in sciatic nerves of rat at 75 mg/kg/day. Format: functional. The following applies: Sciatic nerve.
In experiment [16] the test system is Rattus norvegicus. Briefly: In vivo inhibition of galactitol accumulation in sciatic nerves of rat at 53 mg/kg/day. Type of experiment: functional. The following applies: Sciatic nerve.
Experiment [17] has as its system Rattus norvegicus. The experiment in a line: In vivo inhibition of galactitol accumulation in sciatic nerves of rat at 25 mg/kg/day. Format: functional. The following applies: Sciatic nerve.
Experiment [18] has as its system Rattus norvegicus. Briefly: In vivo inhibition of galactitol accumulation in diaphragm of rat at 75 mg/kg/day. Type of experiment: functional.
For experiment [19], the system named is Rattus norvegicus. Briefly: In vivo inhibition of galactitol accumulation in sciatic nerves of rat at 26 mg/kg/day. The following applies: Sciatic nerve. Format: functional.
For experiment [20], the system named is Rattus norvegicus. The experiment in a line: In vivo inhibition of galactitol accumulation in diaphragm of rat at 49 mg/kg. Type of experiment: functional.
Experiment [21] concerns Rattus norvegicus. Briefly: In vivo inhibition of galactitol accumulation in sciatic nerves of rat at 49 mg/kg/day. Format: functional. The note with it: Sciatic nerve.
Experiment [22] has as its system Rattus norvegicus. Briefly: % reduction of aldose reductase inhibition was evaluated by measuring galactitol accumulation in sciatic nerves of rat at 32 mg/kg/day. Format: functional. The note with it: Sciatic nerve.
Experiment [23] relates to Rattus norvegicus. Briefly: In vivo inhibition of galactitol accumulation in sciatic nerves of rat at 32 mg/kg/day. Format: functional. The note with it: Sciatic nerve.
Experiment [24] has as its system Rattus norvegicus. The experiment in a line: In vivo inhibition of galactitol accumulation in sciatic nerves of rat at 11 mg/kg/day. Format: functional. The following applies: Sciatic nerve.

Consider `COc1ccc2c(C(=O)N(C)CC(=O)O)ccc(Cc3ccccc3)c2c1Br`, for which the inhibition result in experiment [1] was “inactive”. In experiment [2], this compound registered an inhibition of 80%. Moreover, in experiment [3], the inhibition in vivo at 52 mg/kg/day amounted to 34%.
Consider `COC(=O)N(CC(N)=O)C(=O)c1c(F)ccc2c(C(F)(F)F)c(OC)ccc12`, for which the inhibition result in [4], in experiment [7] and in experiment [10] was “inactive” each time. Further, the Inhibition in [5] came to 4%; in experiment [6], 34%. The inhibition in vivo at 11 mg/kg/day in experiment [8] amounted to 28%. The compound further gave an inhibition in vivo at 16 mg/kg/day in experiment [9] of 33%.
`COc1ccc2c(C(=S)N(C)CC(=O)O)cc(C)cc2c1Br`: the Inhibition is 43% in experiment [5] and 86% in experiment [6]. For the same compound, the inhibition in vivo at 123 mg/kg/day in experiment [11] amounted to 86%; in [12], 91%. Besides, the inhibition entry in [7] was “inactive”. In experiment [2], this compound yielded an inhibition of 85%. Further, the inhibition in vivo at 11 mg/kg/day in experiment [8] amounted to 48%.
In the case of `COc1ccc2c(C(=O)N(C)CC(=O)O)cccc2c1C(F)(F)F`, the Inhibition was determined as 27% in [5] and 74% in experiment [6]. The values for the inhibition in vivo at 53 mg/kg/day in experiment [13] and in [16] were 94% and 93%, respectively. For the same compound, in experiment [14], the inhibition result was “inactive”. Moreover, the values for the inhibition in vivo at 75 mg/kg/day in [15] and in [18] were 56% and 27%, respectively. The inhibition in vivo at 25 mg/kg/day in experiment [17] worked out at 33%.
For the compound `COc1ccc2c(C(=O)N(C)CC(=O)O)c(Cl)ccc2c1C(F)(F)F`, the Inhibition in experiment [5] is reported as 39%; in experiment [6] it was 67%. The compound further displayed an inhibition in vivo at 26 mg/kg/day in [19] of 43%. Also, the inhibition in [2] came to 63%. In experiment [20], this compound had an inhibition in vivo at 49 mg/kg of 80%. The compound further came in with an inhibition in vivo at 49 mg/kg/day in experiment [21] of 83%.
In the case of `CCN(CC)C(=O)COC(=O)CN(C(=O)OC)C(=O)c1c(F)ccc2c(C(F)(F)F)c(OC)ccc12`, the inhibition result in experiment [4] is “inactive”. The inhibition in vivo at 32 mg/kg/day in experiment [22] and in [23] was 75% throughout. Moreover, the figures for the inhibition in vivo at 11 mg/kg/day in [24] and in [8] were 39% and 36%, respectively.
